Source: patent publication US11857578B2, “Extract and dermatological composition comprising same, for treating sensitive skin” (PIERRE FABRE DERMO-COSMETIQUE, priority 2018, dated 2024)

Tests used:
Assay type in all cases: cell-based
IL-1β = IL-1β release by human epidermal keratinocytes activated by substance P (ELISA)
Experimental: (§1) The purpose of this study is to evaluate the modulatory properties of the bacterial extract according to the invention in skin inflammation. To that end, an in vitro experimental approach based on the measurement of production and release of tumor necrosis factor-alpha (TNF-α) and interleukin-1 beta (IL-1β) by human epidermal keratinocytes, activated by substance P, is proposed as an in vitro model of cutaneous neurogenic inflammation. The study is carried out on normal human epidermal keratinocytes; these cells are obtained from newborn foreskin. These cells are cultured in a serum-free medium using conventional laboratory procedures. The determination of markers of cutaneous neurogenic inflammation is carried out on these keratinocytes cultured in a medium in the absence (control condition) or in the presence of the compounds to be tested (bacterial extract according to the invention and reference product), and optionally exposed to substance P. The keratinocytes are treated 3 hours before the stress induced by substance P and during the following 24 hours. Levels of proinflammatory cytokines (TNF-α and IL-1β) are quantified 24 h after the induction of inflammatory stress by the addition of substance P (0.5 μM). […] TNF-α and IL-1β productions are measured in the incubation media and quantified by the enzyme-linked immunosorbent assay (ELISA).

TNF-α = TNF-α release by human epidermal keratinocytes activated by substance P (ELISA)
Experimental: as §1

HBD2 = assay: RT-qPCR gene expression of innate immunity marker HBD2 in normal human epidermal keratinocytes; conditions: 1.5 mM, 48 h incubation, three donors
Experimental: (§2) The purpose of this study is to evaluate the effects of the bacterial extract according to the invention on the gene expression of normal human epidermal keratinocytes by an RT-PCR technique on two genes related to innate immunity.
(§3) The study is carried out on normal human epidermal keratinocytes from three donors. These cells are used at their third passage. These cells are cultured in a standard medium supplemented with epidermal growth factor (EGF), pituitary extract (PE) and gentamycin, using conventional laboratory procedures.
(§4) The bacterial extract according to the invention is tested at three concentrations: 0.4, 2 and 10 μg/ml (μg/ml protein).
(§5) At the same time, calcium chloride is tested at 1.5 mM as reference product.
(§6) The keratinocytes are seeded in 24-well plates (50,000 cells per well) and cultured for 24 hours in a culture medium. […]
(§7) The expression of markers is analyzed by the RT-qPCR method on total RNA extracted from the cells under each condition. […] The quantity and quality of RNA are evaluated by capillary electrophoresis. cDNA is synthesized by reverse transcription of total RNA in the presence of oligo(dT) and Transcriptor Reverse Transcriptase. […]
(§8) Fluorescence incorporation into amplified DNA is continuously measured during PCR cycles. […]
(§9) The parameter RQ (relative quantification) is defined as the relative expression/100. […]

S100A7 = assay: RT-qPCR gene expression of innate immunity marker S100A7 in normal human epidermal keratinocytes; conditions: 1.5 mM, 48 h incubation, three donors
Experimental: as §2, §3, §4, §5, §6, §7, §8, §9

[1] = 1 μM, keratinocytes treated 3 h before and 24 h during substance P (0.5 μM)

| Compound | IL-1β mean (IL-1β; [1]) [pg/mL] | inhibition at 1 µM (IL-1β; Homo sapiens, Keratinocyte, versus Cont SP(+), substance P 0.5 μM, 24 h, read-out: IL-1β % Inh) [%] | TNF-α mean (TNF-α; [1]) [pg/mL] | inhibition at 1 µM (TNF-α; Homo sapiens, Keratinocyte, versus Cont SP(+), substance P 0.5 μM, 24 h, read-out: TNF-α % Inh) [%] | HBD2 gene expression, Mean (multiplicative factor, RQ vs control) (HBD2) | HBD2 gene expression, Mean (multiplicative factor, RQ vs control) (HBD2; listed as calcium chloride) | S100A7 gene expression, Mean (multiplicative factor, RQ vs control) (S100A7) | S100A7 gene expression, Mean (multiplicative factor, RQ vs control) (S100A7; listed as calcium chloride) |
| --- | --- | --- | --- | --- | --- | --- | --- | --- |
| COc1ccccc1CN[C@H]1C2CCN(CC2)[C@H]1C(c1ccccc1)c1ccccc1 [NK-1R inh, CP96345] | 132.5 | 91 | 4.6 | 90 | – | – | – | – |
| [Ca+2].[Cl-].[Cl-] [Calcium chloride, calcium chloride] | – | – | – | – | 5.8 | strong expression | 4.1 | strong expression |
